Values quoted from earlier work, collected in patent publication US20020187165A1, “Composition for female sexual arousal” (Joseph F. Long, priority 2001, published 2002).

Conditions: following oral administration

Cn1cc([S+](C)[O-])c(=O)c2ccc(F)cc21 (stereo not shown) [flosequinan]
time of peak plasma concentrations: 1 to 2 h
